Biological target: T1, bovine erythrocyte CA-II (Bos taurus, UniProt P00921)
T1 construct: purified bovine erythrocyte CA-II; from tissue; host or cells: bovine erythrocytes
Test: Carbonic anhydrase II inhibition assay (colorimetric, 4-nitrophenyl acetate substrate)
Assay type: biochemical
Conditions: for IC50: N/A = Not active; for % Inhibition: test concentration not given
Method: 20 µL of tested compounds were incubated with the enzyme carbonic anhydrase II (EC 4.2.1.1) for 15 min in 96-well flat bottom plate. The rate of product formation was monitored with the addition of 20 µL of 4-NPA as substrate, prepared in ethanol at the final concentration of 0.7 mM at 25 °C for 30 min with regular intervals of 1 min, by using spectrophotometer (xMark^TM Microplate, Bio-Rad, Hercules, CA, USA). HEPES-tris was used as a buffer for the reaction at the final concentration of 20 mM at pH 7.4.

T1 sequence (P00921 2-260): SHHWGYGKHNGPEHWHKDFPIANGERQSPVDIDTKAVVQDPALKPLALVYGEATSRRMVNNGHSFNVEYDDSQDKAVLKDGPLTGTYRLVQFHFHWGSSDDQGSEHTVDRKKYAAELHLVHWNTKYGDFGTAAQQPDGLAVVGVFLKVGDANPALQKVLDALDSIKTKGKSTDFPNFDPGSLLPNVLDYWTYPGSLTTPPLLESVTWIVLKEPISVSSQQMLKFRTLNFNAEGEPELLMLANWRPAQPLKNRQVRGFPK

| Compound | IC50 [µM] | % Inhibition [%] |
| --- | --- | --- |
| Tert-Butyl(S)-(1-phenyl-2-(5-phenyl-1,3,4-oxadiazol-2-yl)ethyl) carbamate [Compound 4c] | 13.8 ± 0.64 | 95.5 |
| COc1ccc(-c2nnc(C[C@H](NC(=O)OC(C)(C)C)c3ccccc3)o2)cc1OC [Compound 4j, Tert-Butyl (S)-(2-(5-(3,4-dimethoxyphenyl)-1,3,4-oxadiazol-2-yl)-1-phenylethyl) carbamate] | 26.6 ± 1.47 | 96.7 |
| COc1ccc(OC)c(-c2nnc(C[C@H](NC(=O)OC(C)(C)C)c3ccccc3)o2)c1 [Compound 4k, Tert-Butyl (S)-(2-(5-(2,5-dimethoxyphenyl)-1,3,4-oxadiazol-2-yl)-1-phenylethyl) carbamate] | 22.4 ± 1.43 | 87.8 |
| CC(C)(C)OC(=O)N[C@@H](Cc1nnc(-c2ccccn2)o1)c1ccccc1 [Compound 4a, Tert-Butyl (S)-(1-phenyl-2-(5-(pyridin-2-yl)-1,3,4-oxadiazol-2-yl)ethyl) carbamate] | 12.1 ± 0.86 | 96.2 |
| CC(C)(C)OC(=O)N[C@@H](Cc1nnc(-c2ccc(Cl)cc2)o1)c1ccccc1 [Compound 4l, Tert-Butyl (S)-(2-(5-(4-chlorophenyl)-1,3,4-oxadiazol-2-yl)-1-phenylethyl) carbamate] | 53.6 ± 0.96 | 67.6 |
| CC(C)(C)OC(=O)N[C@@H](Cc1nnc(-c2ccc(O)cc2)o1)c1ccccc1 [Compound 4i, Tert-Butyl (S)-(2-(5-(4-hydroxyphenyl)-1,3,4-oxadiazol-2-yl)-1-phenylethyl) carbamate] | 18.1 ± 1.31 | 58.0 |
| Tert-Butyl(S)-(2-(5-(4-methoxyphenyl)-1,3,4-oxadiazol-2-yl)-1-phenylethyl) carbamate [Compound 4d] | – | 29.0 |
| CC(C)(C)OC(=O)N[C@@H](Cc1nnc(-c2ccccc2O)o1)c1ccccc1 [Compound 4b, Tert-Butyl (S)-(2-(5-(2-hydroxyphenyl)-1,3,4-oxadiazol-2-yl)-1-phenylethyl) carbamate] | 19.1 ± 0.88 | 93.5 |

— article PMC8838037, “Design, Synthesis and Molecular Docking Study of Novel 3-Phenyl-β-Alanine-Based Oxadiazole Analogues as Potent Carbonic Anhydrase II Inhibitors” (Molecules, 2022)
